Where a name gives a salt, the structure may show the parent alone. Read-outs that look alike come from different tables or passages of the source.
How the values were obtained:
[1] = test system: Female CFLP mice; experiment: Effect on energy expenditure and food intake of mice; type: in vivo; conditions: Mus musculus; for response vs control in vivo at 25.5 mg/kg / response vs control in vivo at 23.8 mg/kg / response vs control in vivo at 18.8 mg/kg / response vs control in vivo at 21.3 mg/kg / response vs control in vivo at 20.7 mg/kg / response vs control in vivo at 19.6 mg/kg / response vs control in vivo at 25.6 mg/kg / response vs control in vivo at 20.8 mg/kg / response vs control in vivo at 26.7 mg/kg / response vs control in vivo at 23.6 mg/kg / response vs control in vivo at 21.2 mg/kg: po, 21 h; for response vs control in vivo at 18.9 mg/kg: dose 18.9 mg/kg po, mice, 21 hours after dosing, percentage of mice dosed with water
Description: Female CFLP mice each weighing approximately 24 g, were given food and water ad lib before and during the experiment. The compounds were dissolved in water by addition of one mole of hydrochloric acid per mole of compound and these solutions were administered orally to each of 12 mice. A further 12 mice were dosed orally with water. The mice were placed in boxes through which air was drawn and the oxygen content of the air leaving the boxes was measured. The energy expenditure of the mice was calculated for 21 hours after dosing from the volume of air leaving the boxes and its oxygen content following the principles described by J B de V Weir, J Physiol (London) 109, 1-9, (1949). The food intake of the mice was measured over this same period of 21 hours. The results are expressed as a percentage of the mean food intake or rate of energy expenditure of the mice dosed with water.

[2] = test system: Female CFLP mice; experiment: Hypoglycaemic activity: blood glucose after subcutaneous glucose load in fasted mice; type: in vivo; conditions: glucose 1 g/kg s.c. 30 minutes after dosing, area over 2 hours vs water controls
Description: Female CFLP mice, each weighing approximately 25 g, were fasted for 24 hours prior to the study. The compounds under study were administered orally as an aqueous solution to each of 7 mice. 7 mice were given water as a control. 30 minutes later a blood sample (20 µl) was obtained from the tail for the analysis of blood glucose. Immediately after taking this blood sample, glucose (1 g/kg body weight) was administered subcutaneously to each mouse. Blood samples were then obtained from each mouse at 30 minute intervals for 120 minutes.
Compounds that produced a significant (P<0.05) reduction of blood glucose, compared with control mice given water, at any time interval, were considered active. The area under the blood glucose curve over the 2 hour period after the administration of the glucose was calculated for each compound and compared with the value for control animals.

[3] = test system: Rat hearts; experiment: Cardiac activity: rat hearts perfused by the Langendorff procedure
Description: Rat hearts were perfused by the Langendorff procedure as follows: • Hearts were dissected free within 30 seconds of death and reverse perfused via the aorta and coronary vessels with Krebs-Ringer bicarbonate solution (pH 7.4, 37 °C) gassed with 95% oxygen:5% carbon dioxide at a flow rate between 8-12 cm^3/minute. Responses were observed after injection of drug dissolved in isotonic saline into the perfusion media.
Results are expressed as a percentage of the maximum response due to salbutamol.

[4] = test system: platelets; experiment: Collagen-induced platelet aggregation in human whole blood in vitro; type: cell-based; conditions: collagen EC50 in presence of compound divided by control EC50, 3 mins preincubation
Description: Collagen-induced platelet aggregation in human whole blood in vitro.
Collagen added to stirred citrated blood causes platelet aggregation. As the platelets aggregate, the concentration of single platelets falls. […] Inhibitors of aggregation, such as aspirin and dipyridamole, reduce the response to collagen.
Blood drawn from volunteers who denied taking aspirin within the previous seven days was mixed with 0.1 vol 129 mM trisodium citrate, dispensed into 0.5 ml aliquots and kept at 25°. Collagen (Hormon-Chemie, Munich) or 154 mM NaCl (control) was added to each aliquot of blood stirred at 1100 rpm in an aggregometer at 37° after 3 mins preincubation with compound or appropriate solvent. Aggregates were fixed by addition of 0.5 vol 4.5% formaldehyde or 0.05 vol phosphate-buffered glutaraldehyde. Single platelets were counted electronically. Responses, expressed as per cent fall in platelet count, were obtained to a range of collagen concentrations. The concentration producing a 50% maximal effect (EC50) was estimated from log10 concentration-response curves. Dose-ratios were calculated by dividing the EC50 obtained in the presence of compound under test by the control EC50.

[5] = test system: rat ear; experiment: Topical anti-inflammatory activity: croton oil induced inflammation in the rat ear; type: in vivo; conditions: dose 1.0 mg/rat ear, topical in 1% croton oil in tetrahydrofuran; ear weight after 6 hours; active = significant (5% level) reduction vs non-drug treated control
Description: The method used is based on that described by G. Tonelli et al (Endocrinology, 77, 625-634, 1965). An inflammation is induced in the rat ear by the application of 50 µl of a 1% solution of croton oil in tetrahydrofuran, test compounds being dissolved in the irritant vehicle. After 6 hours the inflammation is assessed by killing the animals and weighing the ears. Topical anti-inflammatory activity of a compound is generally considered to be shown when a significant (5% level) reduction in ear weight is seen compared to non-drug treated control.

[6] = read-out: Mean Energy Expenditure (%)
[7] = Rattus norvegicus, read-out: Heart Rate
[8] = Rattus norvegicus, read-out: Heart Tension
[9] = final concentration in whole blood 200 µM
[10] = 10 μg added to perfusate, percentage of the maximum response due to salbutamol, perfused rat heart, read-out: Heart Rate
[11] = 10 μg added to perfusate, percentage of the maximum response due to salbutamol, perfused rat heart, read-out: Heart Tension
[12] = final concentration in whole blood 300 µM

For `COc1ccc(C[C@@H](C)NC[C@H](O)c2cccc(C(F)(F)F)c2)cc1F` (racemic) [Example 9, N-[2-(3-Fluoro-4-methoxyphenyl)-1-methylethyl]-2-hydroxy-2-(3-trifluoromethylphenyl)ethanamine hydrobromide-(RR,SS) diastereoisomer], the response vs control in vivo at 25.5 mg/kg [1, 6] was 115%, the response vs control in vivo at 25.5 mg/kg ([1]; read-out: Mean Food Intake (%)) was 78% and the “Reduction in area under Blood glucose curve (%)” value (from here on “Reduction in area … (%)”) ([2]; dose 2.5 μ moles/kg po) was 18%. For the same molecule, the Emax at 0.01 mg [3, 7] was 16% and the Emax at 0.01 mg [3, 8] was 4%.

In the case of `CC(=O)Oc1ccccc1C(=O)O` [Aspirin, reference compound], the Dose-ratio [4, 9] is reported as 2.4 ± 0.3(3).

For `OCCN(CCO)c1nc(N2CCCCC2)c2nc(N(CCO)CCO)nc(N3CCCCC3)c2n1` [Dipyridamole, reference compound], the Dose-ratio [4, 9] was 3.7 ± 1.1(4).

In the case of `CC(Cc1ccc(OCc2ccccc2)cc1)NCC(O)c1cccc(C(F)(F)F)c1` (stereo not shown) [Example 1, N-[2-(4-Benzyloxyphenyl)-1-methylethyl]-2-hydroxy-2-(3-trifluoromethylphenyl)ethanamine], the response vs control in vivo at 23.8 mg/kg [1, 6] is reported as 115%, the response vs control in vivo at 23.8 mg/kg ([1]; read-out: Mean Food Intake (%)) is reported as 100% and the “Reduction in area … (%)” value ([2]; dose 12.5 μ moles/kg po) is reported as 36%. For the same molecule, the Emax at 0.01 mg [3, 10] was 0% and the Emax at 0.01 mg [3, 11] was 7%.

`CC(Cc1ccc(O)cc1)NCC(O)c1cccc(C(F)(F)F)c1` (stereo not shown) [Example 2, N-[2-(4-Hydroxyphenyl)-1-methylethyl]-2-hydroxy-2-(3-trifluoromethylphenyl)ethanamine] was tested, and the response vs control in vivo at 18.8 mg/kg [1, 6] was 126%, the response vs control in vivo at 18.8 mg/kg ([1]; read-out: Mean Food Intake (%)) was 90% and the “Reduction in area … (%)” value ([2]; dose 12.5 μ moles/kg po) was 59%. The Activity [5] was “Active”, the Emax at 0.01 mg [3, 7] was 73% and the Emax at 0.01 mg [3, 8] was 64%. For the same molecule, the Dose-ratio [4, 12] was 2.2.

In the case of `COc1ccc(CC(C)NCC(O)c2cccc(C(F)(F)F)c2)cc1OC` (stereo not shown) [Example 3, N-[2-(3,4-Dimethoxyphenyl)-1-methylethyl]-2-hydroxy-2-(3-trifluoromethylphenyl)ethanamine], the response vs control in vivo at 21.3 mg/kg [1, 6] is reported as 109%, the response vs control in vivo at 21.3 mg/kg ([1]; read-out: Mean Food Intake (%)) is reported as 100% and the “Reduction in area … (%)” value ([2]; dose 12.5 μ moles/kg po) is reported as 43%. The Activity [5] was “Active”, the Emax at 0.01 mg [3, 10] was 14% and the Emax at 0.01 mg [3, 11] was 33%.

For `COc1ccc(CC(C)NCC(O)c2cccc(C(F)(F)F)c2)cc1F` (stereo not shown) [Example 4, N-[2-(3-Fluoro-4-methoxyphenyl)-1-methylethyl]-2-hydroxy-2 (3-trifluoromethylphenyl)ethanamine], the response vs control in vivo at 20.7 mg/kg [1, 6] was 113%, the response vs control in vivo at 20.7 mg/kg ([1]; read-out: Mean Food Intake (%)) was 86% and the “Reduction in area … (%)” value ([2]; dose 1.0 μ moles/kg po) was 28%. For the same molecule, the Emax at 0.01 mg [3, 7] was 0%, the Emax at 0.01 mg [3, 8] was 5% and the Dose-ratio [4, 12] was 2.3.

For `COc1ccc(CC(C)NCC(O)c2cccc(C(F)(F)F)c2)cc1` (stereo not shown) [Example 5, N-[2-(4-Methoxyphenyl)-1-methylethyl]-2-hydroxy-2-(3-trifluoromethylphenyl) ethanamine], the response vs control in vivo at 19.6 mg/kg [1, 6] was 119%, the response vs control in vivo at 19.6 mg/kg ([1]; read-out: Mean Food Intake (%)) was 88% and the “Reduction in area … (%)” value ([2]; dose 1.0 μ moles/kg po) was 27%. The Emax at 0.01 mg [3, 7] was 0% and the Emax at 0.01 mg [3, 8] was 8%.

`COc1cc(CC(C)NCC(O)c2cccc(C(F)(F)F)c2)ccc1OCc1ccccc1` (stereo not shown) [Example 6, N-[2-(4-Benzyloxy-3-methoxyphenyl)-1-methylethyl]-2-hydroxy-2-(3-trifluoromethylphenyl)ethanamine] showed a response vs control in vivo at 25.6 mg/kg [1, 6] of 114%, a response vs control in vivo at 25.6 mg/kg ([1]; read-out: Mean Food Intake (%)) of 75% and an Emax at 0.01 mg [3, 10] of 6%. For the same molecule, the Emax at 0.01 mg [3, 11] was 25%.

`CC(Cc1ccc(OCc2ccccc2)c(Cl)c1)NCC(O)c1cccc(C(F)(F)F)c1` (stereo not shown) [Example 7, N-[2-(4-Benzyloxy-3-chlorophenyl)-1-methylethyl]-2-hydroxy-2-(3-trifluoromethylphenyl)ethanamine] was tested, and the “Reduction in area … (%)” value ([2]; dose 12.5 μ moles/kg po) was 28%, the Emax at 0.01 mg [3, 10] was 0% and the Emax at 0.01 mg [3, 11] was 0%.

For `CC(Cc1ccc(O)c(Cl)c1)NCC(O)c1cccc(C(F)(F)F)c1` (stereo not shown) [Example 8, N-[2-(3-Chloro-4-hydroxyphenyl)-1-methylethyl]-2-hydroxy-2-(3-trifluoromethylphenyl)ethanamine], the response vs control in vivo at 20.8 mg/kg [1, 6] was 118%, the response vs control in vivo at 20.8 mg/kg ([1]; read-out: Mean Food Intake (%)) was 88% and the “Reduction in area … (%)” value ([2]; dose 2.5 μ moles/kg po) was 11%. The Emax at 0.01 mg [3, 7] was 23% and the Emax at 0.01 mg [3, 8] was 8%.

With `CCCCCCCCCCOc1ccc(CC(C)NCC(O)c2cccc(C(F)(F)F)c2)cc1` (stereo not shown) [Example 10, N-[2-(4-^nDecyloxyphenyl)-1-methylethyl)-2-hydroxy-2-(3-trifluoromethylphenyl) ethanamine] the response vs control in vivo at 26.7 mg/kg [1, 6] was 118%, the response vs control in vivo at 26.7 mg/kg ([1]; read-out: Mean Food Intake (%)) was 89% and the “Reduction in area … (%)” value ([2]; dose 5.0 μ moles/kg po) was 48%.

In the case of `CCCCCOc1ccc(CC(C)NCC(O)c2cccc(C(F)(F)F)c2)cc1` (stereo not shown) [Example 11, N-[2-(4-^nPentyloxyphenyl)-1-methylethyl]-2-hydroxy-2-(3-trifluoromethylphenyl) ethanamine], the response vs control in vivo at 23.6 mg/kg [1, 6] is reported as 118%, the response vs control in vivo at 23.6 mg/kg ([1]; read-out: Mean Food Intake (%)) is reported as 106% and the “Reduction in area … (%)” value ([2]; dose 2.5 μ moles/kg po) is reported as 47%.

`CC(Cc1ccc(OC(C)C)cc1)NCC(O)c1cccc(C(F)(F)F)c1` (stereo not shown) [Example 12, N-(2-(4-Isopropoxyphenyl)-1-methylethyl]-2-hydroxy-2-(3-trifluoromethylphenyl) ethanamine] was tested, and the response vs control in vivo at 21.2 mg/kg [1, 6] was 122%, the response vs control in vivo at 21.2 mg/kg ([1]; read-out: Mean Food Intake (%)) was 94% and the “Reduction in area … (%)” value ([2]; dose 2.5 μ moles/kg po) was 52%.

With `COc1ccc(CCNCC(O)c2cccc(C(F)(F)F)c2)cc1` (stereo not shown) [Example 13, N-[2-(4-Methoxyphenyl)ethyl]-2-hydroxy-2-(3-trifluoromethylphenyl) ethanamine] the response vs control in vivo at 18.9 mg/kg [1, 6] was 112%, the response vs control in vivo at 18.9 mg/kg ([1]; read-out: Mean Food Intake (%)) was 104% and the “Reduction in area … (%)” value ([2]; dose 5.0 μ moles/kg po) was 27%.

`COc1ccc(CCC(C)(C)NCC(O)c2cccc(C(F)(F)F)c2)cc1` (stereo not shown) [Example 14, N-[3-(4-Methoxyphenyl)-1,1-dimethylpropyl]-2-hydroxy-2-(3-trifluoromethylphenyl) ethanamine] was tested, and the “Reduction in area … (%)” value ([2]; dose 100 μ moles/kg po) was 34%.
